According to patent publication US20220002314A1 (priority 2018, published 2022):
Like-named read-outs stand apart in the source and are kept apart here.

Columns and labels:
[1] = target: Human α2δ-1 subunit of Cav2.2 calcium channel (Homo sapiens, UniProt P54289); experiment: biochemical; format: binding
Human μ-opioid receptor = Human μ-opioid receptor (Homo sapiens, UniProt P35372); experiment: biochemical; format: binding
Human μ-opioid receptor, sequence (P35372 whole entry): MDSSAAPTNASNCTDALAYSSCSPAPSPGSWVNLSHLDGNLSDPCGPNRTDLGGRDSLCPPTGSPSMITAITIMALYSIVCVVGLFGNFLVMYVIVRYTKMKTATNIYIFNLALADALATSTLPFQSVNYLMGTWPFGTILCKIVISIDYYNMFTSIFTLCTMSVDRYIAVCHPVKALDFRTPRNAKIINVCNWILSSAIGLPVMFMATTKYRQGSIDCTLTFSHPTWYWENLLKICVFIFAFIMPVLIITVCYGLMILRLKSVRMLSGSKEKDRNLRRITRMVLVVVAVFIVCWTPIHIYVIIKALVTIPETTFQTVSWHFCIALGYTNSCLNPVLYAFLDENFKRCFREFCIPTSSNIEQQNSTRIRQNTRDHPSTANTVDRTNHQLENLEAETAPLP

Human α2δ-1 subunit of Cav2.2 calcium channel, sequence (P54289 25-1103): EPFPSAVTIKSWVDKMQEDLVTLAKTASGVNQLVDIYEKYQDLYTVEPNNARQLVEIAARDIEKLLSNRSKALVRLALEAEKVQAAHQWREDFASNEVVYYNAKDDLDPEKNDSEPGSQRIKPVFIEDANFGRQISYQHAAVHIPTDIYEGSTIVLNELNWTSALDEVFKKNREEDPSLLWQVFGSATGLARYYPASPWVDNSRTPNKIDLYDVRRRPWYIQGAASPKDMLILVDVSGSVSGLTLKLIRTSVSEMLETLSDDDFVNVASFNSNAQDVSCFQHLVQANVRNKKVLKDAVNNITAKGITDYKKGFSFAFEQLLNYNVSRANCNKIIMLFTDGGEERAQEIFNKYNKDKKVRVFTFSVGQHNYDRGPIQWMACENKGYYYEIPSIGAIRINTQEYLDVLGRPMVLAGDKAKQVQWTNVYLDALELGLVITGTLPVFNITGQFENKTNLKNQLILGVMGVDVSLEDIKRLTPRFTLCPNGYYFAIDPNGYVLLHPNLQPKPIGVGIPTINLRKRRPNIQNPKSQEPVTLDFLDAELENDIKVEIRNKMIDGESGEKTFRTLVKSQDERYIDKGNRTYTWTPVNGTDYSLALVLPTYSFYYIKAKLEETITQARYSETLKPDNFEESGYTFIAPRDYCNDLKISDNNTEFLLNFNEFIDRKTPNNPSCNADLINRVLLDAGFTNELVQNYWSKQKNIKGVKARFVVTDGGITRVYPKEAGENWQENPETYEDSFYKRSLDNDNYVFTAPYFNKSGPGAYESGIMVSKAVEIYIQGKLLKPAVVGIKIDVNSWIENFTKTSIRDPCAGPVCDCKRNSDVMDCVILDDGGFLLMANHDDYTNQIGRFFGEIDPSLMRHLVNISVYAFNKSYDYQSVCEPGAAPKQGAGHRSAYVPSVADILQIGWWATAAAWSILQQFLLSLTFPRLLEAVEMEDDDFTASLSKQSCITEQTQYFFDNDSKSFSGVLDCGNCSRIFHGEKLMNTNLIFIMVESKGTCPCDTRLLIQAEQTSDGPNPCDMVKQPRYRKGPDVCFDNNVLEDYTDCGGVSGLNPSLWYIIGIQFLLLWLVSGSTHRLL

Row | SMILES | Ki [1] | Ki (Human μ-opioid receptor) | Ki ([1]; read-out: α2δ-1 binding) | Ki (Human μ-opioid receptor; read-out: μ-binding)
1 | CCCC(c1nc2cccnc2c(=O)n1CC)N1C[C@@H](C)N[C@@H](C)C1 (stereo partly drawn) [Example 27, 2-(1-((3S,5R)-3,5-dimethylpiperazin-1-yl)butyl)-3-ethylpyrido[3,2-d]pyrimidin-4(3H)-one] | < 0.5 µM | > 0.5 µM | – | –
2 | CCCC(c1nc2ncc(Br)cc2c(=O)n1CC)N1C[C@@H](C)N[C@@H](C)C1 (stereo partly drawn) [Example 28, 6-bromo-2-(1-((3S,5R)-3,5-dimethylpiperazin-1-yl)butyl)-3-ethylpyrido[2,3-d]pyrimidin-4(3H)-one] | < 0.5 µM | > 0.5 µM | – | –
3 | CCC[C@H](c1nc2ccc(Br)cc2c(=O)n1CC)N1C[C@@H](C)N[C@@H](C)C1 [Example 29, 6-bromo-2-((R)-1-((3S,5R)-3,5-dimethylpiperazin-1-yl)butyl)-3-ethylquinazolin-4(3H)-one] | < 0.5 µM | > 0.5 µM | – | –
4 | CCC[C@@H](c1nc2ccc(Br)cc2c(=O)n1CC)N1C[C@@H](C)N[C@@H](C)C1 [Example 30, 6-bromo-2-((S)-1-((3S,5R)-3,5-dimethylpiperazin-1-yl)butyl)-3-ethylquinazolin-4(3H)-one] | 0.5 to 5 µM | > 0.5 µM | – | –
5 | CCC[C@@H](c1nc2ccccc2c(=O)n1C)N1C[C@@H](C)N[C@@H](C)C1 [Example 31, 2-((S)-1-((3S,5R)-3,5-dimethylpiperazin-1-yl)butyl)-3-methylquinazolin-4(3H)-one] | 0.5 to 5 µM | > 0.5 µM | – | –
6 | CCC[C@H](c1nc2ccccc2c(=O)n1C)N1C[C@@H](C)N[C@@H](C)C1 [Example 32, 2-((R)-1-((3S,5R)-3,5-dimethylpiperazin-1-yl)butyl)-3-methylquinazolin-4(3H)-one] | < 0.5 µM | > 0.5 µM | – | –
7 | CCC[C@H](c1nc2ccccc2c(=O)n1CC)N1C[C@@H](C)N[C@@H](C)C1 [Example 34, 2-((R)-1-((3S,5R)-3,5-dimethylpiperazin-1-yl)butyl)-3-ethylquinazolin-4(3H)-one] | < 0.5 µM | > 0.5 µM | – | –
8 | CCC[C@H](c1nc2ccc(O)cc2c(=O)n1CC)N1C[C@@H](C)N[C@@H](C)C1 [Example 35, 2-((R)-1-((3S,5R)-3,5-Dimethylpiperazin-1-yl)butyl)-3-ethyl-6-hydroxyquinazolin-4(3H)-one] | < 0.5 µM | > 0.5 µM | – | –
9 | CCC[C@@H](c1nc2ccc(O)cc2c(=O)n1CC)N1C[C@@H](C)N[C@@H](C)C1 [Example 36, 2-((S)-1-((3S,5R)-3,5-dimethylpiperazin-1-yl)butyl)-3-ethyl-6-hydroxyquinazolin-4(3H)-one] | 0.5 to 5 µM | > 0.5 µM | – | –
10 | CCC[C@@H](c1nc2c(F)cc(OC)cc2c(=O)n1CC)N1CCNCC1 [Example 37, (S)-3-Ethyl-8-fluoro-6-methoxy-2-(1-(piperazin-1-yl)butyl)quinazolin-4(3H)-one] | > 5 µM | > 0.5 µM | – | –
11 | CCC[C@H](c1nc2c(F)cc(OC)cc2c(=O)n1CC)N1CCNCC1 [Example 38, (R)-3-ethyl-8-fluoro-6-methoxy-2-(1-(piperazin-1-yl)butyl)quinazolin-4(3H)-one] | < 0.5 µM | 0.1 to 0.5 µM | – | –
12 | CCC[C@@H](c1nc2c(F)cc(OC)c(Br)c2c(=O)n1CC)N1CCNCC1 [Example 39, (S)-5-Bromo-3-ethyl-8-fluoro-6-methoxy-2-(1-(piperazin-1-yl)butyl)quinazolin-4(3H)-one] | – | – | > 5 µM | > 0.5 µM
13 | CCC[C@H](c1nc2c(F)cc(OC)c(Br)c2c(=O)n1CC)N1CCNCC1 [Example 40, (R)-5-bromo-3-ethyl-8-fluoro-6-methoxy-2-(1-(piperazin-1-yl)butyl)quinazolin-4(3H)-one] | – | – | 0.5 to 5 µM | > 0.5 µM
14 | CCC[C@H](c1nc2ccc(Br)cc2c(=O)n1C)N1CCN[C@@H](C)C1 [Example 41, 6-Bromo-3-methyl-2-((R)-1-((S)-3-methylpiperazin-1-yl)butyl)quinazolin-4(3H)-one] | < 0.5 µM | 0.1 to 0.5 µM | – | –
15 | CCC[C@@H](c1nc2ccc(Br)cc2c(=O)n1C)N1CCN[C@@H](C)C1 [Example 42, 6-bromo-3-methyl-2-((S)-1-((S)-3-methylpiperazin-1-yl)butyl)quinazolin-4(3H)-one] | > 5 µM | > 0.5 µM | – | –
16 | CCC[C@H](c1nc2ccccc2c(=O)n1CC)N1CCN[C@@H](C)C1 [Example 43, 3-Ethyl-2-((R)-1-((S)-3-methylpiperazin-1-yl)butyl)quinazolin-4(3H)-one] | < 0.5 µM | > 0.5 µM | – | –
17 | CCC[C@@H](c1nc2ccccc2c(=O)n1CC)N1CCN[C@@H](C)C1 [Example 44, 3-ethyl-2-((S)-1-((S)-3-methylpiperazin-1-yl)butyl)quinazolin-4(3H)-one] | > 5 µM | > 0.5 µM | – | –
18 | CCC[C@@H](c1nc2c(F)cc(OC)cc2c(=O)n1CC)N1CCN[C@@H](C)C1 [Example 45, 3-Ethyl-8-fluoro-6-methoxy-2-((S)-1-((S)-3-methylpiperazin-1-yl)butyl)quinazolin-4(3H)-one] | > 5 µM | > 0.5 µM | – | –
19 | CCC[C@H](c1nc2c(F)cc(OC)cc2c(=O)n1CC)N1CCN[C@@H](C)C1 [Example 46, 3-ethyl-8-fluoro-6-methoxy-2-((R)-1-((S)-3-methylpiperazin-1-yl)butyl)quinazolin-4(3H)-one] | < 0.5 µM | 0.1 to 0.5 µM | – | –
20 | CCC[C@H](c1nc2c(F)cc(Br)cc2c(=O)n1CC)N1CCN[C@H](C)C1 [Example 47, 6-Bromo-3-ethyl-8-fluoro-2-((R)-1-((R)-3-methylpiperazin-1-yl)butyl)quinazolin-4(3H)-one] | < 0.5 µM | > 0.5 µM | – | –
21 | CCC[C@@H](c1nc2c(F)cc(Br)cc2c(=O)n1CC)N1CCN[C@H](C)C1 [Example 48, 6-bromo-3-ethyl-8-fluoro-2-((S)-1-((R)-3-methylpiperazin-1-yl)butyl)quinazolin-4(3H)-one] | > 5 µM | > 0.5 µM | – | –
22 | CCC[C@H](c1nc2cc(Cl)c(Cl)cc2c(=O)n1CC)N1CCN[C@@H](C)C1 [Example 49, 6,7-Dichloro-3-ethyl-2-((R)-1-((S)-3-methylpiperazin-1-yl)butyl)quinazolin-4(3H)-one] | < 0.5 µM | 0.1 to 0.5 µM | – | –
23 | CCC[C@@H](c1nc2cc(Cl)c(Cl)cc2c(=O)n1CC)N1CCN[C@@H](C)C1 [Example 50, 6,7-dichloro-3-ethyl-2-((S)-1-((S)-3-methylpiperazin-1-yl)butyl)quinazolin-4(3H)-one] | > 5 µM | > 0.5 µM | – | –
24 | CCC[C@H](c1nc2c(F)cc(Br)cc2c(=O)n1CC)N1CCN[C@@H](C)C1 [Example 51, 6-Bromo-3-ethyl-8-fluoro-2-((R)-1-((S)-3-methylpiperazin-1-yl)butyl)quinazolin-4(3H)-one] | < 0.5 µM | 0.1 to 0.5 µM | – | –
25 | CCC[C@@H](c1nc2c(F)cc(Br)cc2c(=O)n1CC)N1CCN[C@@H](C)C1 [Example 52, 6-bromo-3-ethyl-8-fluoro-2-((S)-1-((S)-3-methylpiperazin-1-yl)butyl)quinazolin-4(3H)-one] | > 5 µM | > 0.5 µM | – | –
26 | CCC[C@H](c1nc2cc(F)c(Cl)cc2c(=O)n1CC)N1CCN[C@@H](C)C1 [Example 53, 6-Chloro-3-ethyl-7-fluoro-2-((R)-1-((S)-3-methylpiperazin-1-yl)butyl)quinazolin-4(3H)-one] | < 0.5 µM | 0.1 to 0.5 µM | – | –
